One series can be described thus: in vitro. It is filed as cell-based. Particulars: human; HGT-NV cells, 72 h, resazurin; read-out: 50% cytotoxic concentration (CC50). How it is done:
The cell cytotoxicity of rupintrivir against HGT-NV cells was determined by a resazurin assay ([39]). Briefly, subconfluent HGT-NV cells in 96-well plates were treated with various concentrations of rupintrivir and then incubated for 72 h in a CO2 incubator at 37°C. After incubation, the supernatant was removed and the cells were washed with PBS, and then complete DMEM containing resazurin (0.1 mg/ml) was added to the cells. After 4 h of incubation, the optical density at 560 nm with a 620-nm optical density reference was determined by using a SpectraMax i3 instrument (Molecular Devices). The 50% cytotoxic concentration (CC50) values of rupintrivir were calculated using XLfit (version 5.3) software.

In another series the test system is recombinant WT MNV. In words: Antiviral effect against recombinant WT MNV infection of BV-2 cells (TCID50). It is filed as cell-based, murine norovirus. The note with it: BV-2, 24 h. How it is done: BV-2 cells were infected with recombinant WT MNV or the MNV I109V mutant at an MOI of 0.1 or 1 for 1 h in the CO2 incubator at 37°C. After incubation, the supernatant was removed and the cells were washed twice with PBS, and then complete DMEM containing various concentrations of rupintrivir or 2CMC was added to the cells. After 24 h for incubation, the virus titers of the supernatant were determined by measurement of the TCID50. On the basis of the TCID50, the 90% effective concentration (EC90) values of rupintrivir and 2CMC were calculated using XLfit (version 5.3) software.

Another series deals with Norwalk virus replicon. In words: Colony formation assay with HGT-NV cells after 12 days of treatment. It is filed as cell-based, Human norovirus (HuNoV) GI. The note with it: then 1 week G418 1.5 mg/ml without drug. How it is done: HGT-NV cells treated with rupintrivir or DMSO for 12 days in the absence of G418 were plated into 6-well plates in complete DMEM and maintained without rupintrivir in the presence of G418 (1.5 mg/ml). After 1 week of incubation, the colonies on the plate were stained with 0.1% toluidine blue and photographed.

Series [1] has as its target T1, MNV WT protease (polyprotein) (Norovirus, UniProt Q80J95).
T1 construct: in vitro-transcribed MNV full-length capped RNA containing either the WT or mutant proteases; made in house; host or cells: rabbit reticulocyte lysate (Flexi system, Promega), in vitro translation
Briefly: In vitro translation, MNV polyprotein processing, WT protease. It is filed as biochemical, murine norovirus. The note with it: 80 μM, rabbit reticulocyte lysate. How it is done: (§1) FIG 4 Impact of rupintrivir resistance-conferring mutations on MNV polyprotein processing in vitro. In vitro translation reactions were programmed with equal quantities of in vitro-transcribed MNV full-length capped RNA containing either the WT or mutant proteases in the presence and absence of 80 μM rupintrivir. The [^35S]methionine-labeled products were subsequently analyzed by SDS-PAGE and phosphorimaging analysis. The percentage of fully processed NS3, determined on the basis of the expected molecular mass of the proteins, was calculated and expressed relative to the total amount of viral protein produced.
(§2) In vitro translation reactions were performed using a Flexi rabbit reticulocyte lysate system (Promega). The reaction mixtures were prepared according to the manufacturer's instructions as described for capped mRNAs and programmed with 1 μg of RNA per 25-μl reaction mixture. The reaction mixtures were incubated at 30°C for 90 min prior to the addition of an equal volume of SDS-PAGE sample buffer. Samples were subsequently resolved on a 12.5% SDS-polyacrylamide gel before exposure to a phosphorimager screen.

Series [2] addresses T2, MNV I109V protease (polyprotein) (Norovirus, UniProt Q80J95, I1103V).
T2 construct: in vitro-transcribed MNV full-length capped RNA containing either the WT or mutant proteases; made in house; host or cells: rabbit reticulocyte lysate (Flexi system, Promega), in vitro translation
Briefly: In vitro translation, MNV polyprotein processing, I109V protease. It is filed as biochemical, murine norovirus. Particulars: 80 μM, rabbit reticulocyte lysate. How it is done: as §1, §2

For series [3], the system named is rupintrivir-resistant Norwalk virus replicon. In words: Susceptibility of rupintrivir-resistant replicon cells, all clones (qRT-PCR). It is filed as cell-based, Human norovirus (HuNoV) GI. The note with it: resistant clones vs DMSO-passaged cells. As for the experimental part: Given the potent effects of rupintrivir on HGT-NV cells, we sought to determine whether rupintrivir-resistant replicons could be generated. To this end, HGT-NV cells were treated with 5 μM rupintrivir for 12 days in the absence of G418 selection, followed by subsequent passages in the presence of G418 with increasing concentrations of rupintrivir for up to 45 days (Fig. 1D). This approach yielded three lineages of replicon cells which were resistant to 10, 15, and 20 μM rupintrivir. To identify the mutations conferring the resistance to rupintrivir, we isolated cell clones by limiting dilution using replicon cells surviving after 45 days of culture and then evaluated the rupintrivir sensitivity of the replicon cells. […] All clones treated with 10 μM rupintrivir had the I109V single amino acid substitution, while the A105V/I109V double amino acid substitution was observed only in clones treated with 15 and 20 μM rupintrivir. […]
The inhibitory effect of rupintrivir on HuNoV replication was assessed by quantification of the levels of GI NuNoV RNA and β-actin RNA as the reference gene. […] The real-time quantitative reverse transcription-PCR (qRT-PCR) assay was performed by using a One-Step Plus qRT-PCR kit according to the protocol of the manufacturer (Primer Design). […] Relative quantification was performed using the 2^−ΔΔCT threshold cycle (CT) method ([38]). […]
(In general: In antiviral work, replicon cells carry a viral genome segment that copies itself.)

Where only a bound is given, the exact number is not on record here.

The source of these data is PMC5923142, “Selection and Characterization of Rupintrivir-Resistant Norwalk Virus Replicon Cells In Vitro” (Antimicrobial Agents and Chemotherapy, 2018).

One may read the EC90 as the concentration at which the effect reaches the 90% level.

In the case of `CCOC(=O)/C=C/[C@H](C[C@@H]1CCNC1=O)NC(=O)[C@@H](CC(=O)[C@@H](NC(=O)c1cc(C)on1)C(C)C)Cc1ccc(F)cc1` [rupintrivir, Rupintrivir], in “in vitro”, the CC50 was > 100 µM. Besides, the results for the concentration for an effect of 90% (EC90) with recombinant WT MNV (MOI 0.1 TCID50/cell) and with recombinant WT MNV (MOI 1 TCID50/cell) were 9.1 µM and 8.9 µM, respectively. Further, the colony formation entry in the series on Norwalk virus replicon (2.5 μM for 12 days) is listed as “some colonies remained”; in the series on Norwalk virus replicon (5 μM for 12 days), “some colonies remained”; with Norwalk virus replicon (10 μM for 12 days), “completely prevent colony formation”. The entries for the “polyprotein processing (mature NS3)” value in series [1] and in series [2] were “prevented the cleavage of the polyprotein” and “still able to produce mature NS3”, respectively. For the same molecule, the fold reduced sensitivity in series [3] is 4- to 11 fold.
